In patent US20240398773A1, “COMPOSITIONS COMPRISING OTESECONAZOLE” (Mycovia Pharmaceuticals, Inc., priority 2021, published 2024):

Tested on: Candida species
Assay: Phase 2a dose-ranging study in moderate-to-severe acute VVC, effective therapeutic cure
Format: in vivo, human
Settings: comparator arm, single dose of fluconazole 150 mg; Per Protocol population
Method: Oteseconazole has previously been evaluated in a Phase 2a multi-center, randomized, double-blind, active-controlled, parallel-group, dose-ranging study in patients with moderate-to-severe acute VVC. A total of 55 subjects with moderate-to-severe acute VVC (severity score ≥6 and a positive fungal KOH test) participated in the study across 4 dose groups: 1) oteseconazole 300 mg qd for 3 days: 2) 600 mg qd for 3 days: 3) 600 mg bid for 3 days; or 4) a single dose of fluconazole 150 mg followed by matching placebo. […] No safety signals of clinical concern were observed from the safety assessments.
The efficacy of oteseconazole in the treatment of moderate-to-severe acute VVC was evaluated at the TOC visit in the Per Protocol population at the Day 28 test of cure (TOC) visit was, 87%, 86%, 86%, and 75% of subjects receiving the low, mid-, or high-dose oteseconazole or comparator arm of fluconazole, respectively, achieved an effective therapeutic cure (defined as having a total clinical signs and symptoms severity score of ≤1 and a negative culture for Candida species) in the Per Protocol population

## OC(Cn1cncn1)(Cn1cncn1)c1ccc(F)cc1F [fluconazole, reference compound]
  subjects achieving effective therapeutic cure at Day 28 TOC visit: 75%
